According to patent US9115145B2, “Tocotrienol derivatives and associated methods” (FIRST TECH INTERNATIONAL LIMITED, priority 2011, dated 2015):
Where two headings read alike, the source gives them in different places.

What was measured:
[1] = tested on: +SA mammary epithelial cells; assay: MTT assay of +SA cells (antiproliferative activity); assay type: cell-based, mouse; conditions: for IC50: Mus musculus, +SA cell, 24 hours treatment, read-out: IC50 antiproliferative activity against +SA mammary epithelial cells; for antiproliferative activity against +SA mammary tumor cells (in words): described from FIG. 32 / text
Description: The antiproliferative activities of Compounds 3-44 against the highly metastatic malignant +SA mammary epithelial cells were evaluated by MTT assay. Materials for the assay were purchased from Sigma Chemical Company (St. Louis, Mo.) unless otherwise stated. The highly malignant +SA mouse mammary epithelial cell line was serially passaged at subconfluent cell density. The +SA mammary tumor cell line was derived from an adenocarcinoma that developed spontaneously in a BALB/c female mouse. +SA cells were maintained in serum-free defined medium consisting of Dulbecco's modified Eagle's medium (DMEM)/F12 containing 5 mg/mL bovine serum albumin (BSA), 10 […], 100 U/mL soybean trypsin inhibitor, 100 U/mL penicillin G, 0.1 mg/mL streptomycin, […], and 10 ng/mL epidermal growth factor. For subculturing, cells were rinsed twice with sterile Ca2+ and Mg2+-free phosphate buffered saline (PBS) and incubated in 0.05% trypsin containing 0.025% EDTA in PBS for 5 min at 37° C. The released cells were centrifuged, resuspended in fresh media and counted using hemocytometer. A stock solution of the compounds was prepared in DMSO. Once dissolved, this solution was added to a small volume of sterile 10% BSA in water and incubated overnight at 37° C. This solution conjugated to BSA was used to prepare various concentrations (0-40 μM) of tocotrienol analogs. DMSO was added to all treatment media such that the final DMSO concentration was the same in all treatment groups within a given experiment and was always less than 0.1%. For cytotoxic studies, cells were seeded at a density of 5×10^4 cells/well (+SA cells) or 1×10^5 cells/well (CL-S1 cells) (6 wells/group) in 24-well culture plates and allowed to grow in their respective control media. After 3 days incubation period (approximately 70% confluency), cells were divided equally into various treatment groups and exposed to their respective treatments for a 24 hours incubation period. Following the 24 hours treatment period, cell viability was measured using the MTT assay.
+SA Mammary epithelial cell viable number was determined by a 3-(4,5-dimethylthiazol-2yl)-2,5-diphenyl tetrazolium bromide (MTT) colorimetric assay. On the assay day, treatment medium was replaced with fresh control medium containing 0.42 mg/mL MTT, and the cells in 24-well plates were incubated at 37° C. for 4 hours. Afterward, the medium was removed, and the MTT crystals were dissolved in isopropyl alcohol (1 mL/well). The optical density of each sample was read at 570 nm on a microplate reader (SpectraCount, Packard BioScience Company), against a blank prepared from cell-free cultures. The number of cells/well was calculated against a standard curve prepared by plating various concentrations of cells, as determined by hemocytometer, at the start of each experiment.
Differences among the various treatment groups in +SA cell cytotoxic studies were determined by analysis of variance (ANOVA) followed by Dunnett's t-test. The difference of P<0.05 was considered to be statistically significant as compared with vehicle-treated controls unless separately described. Linear regression analysis of treatment effects on viable cell number in growth and cytotoxicity studies was used to determine the 50% growth inhibition concentration (IC50) for individual treatments.

[2] = tested on: 60 human tumor cell lines; assay: NCI in vitro screening against 60 human cell lines, single concentration; assay type: cell-based; conditions: 10 μM dose; negative values indicate cytotoxicity
Description: Compounds selected from Compounds 3-44 were provided to the National Cancer Institute for in vitro screening against 60-human cell lines for their ability to inhibit the growth of tumor cells in a full panel representing nine different organs (blood, lung, colon, CNS, skin, ovary, kidney, prostate, and breast). The compounds were tested at a single concentration of 10 μM, and the percentages of growth inhibitions over the sixty tested cell lines were determined. Compounds showing the highest activity were chosen for secondary assays using five different compound concentrations.
The human tumor cell lines of the cancer screening panel were grown in RPMI 1640 medium containing 5% fetal bovine serum and 2 mM L-glutamine. For a typical screening experiment, cells are inoculated into 96 well microtiter plates in 100 μL at plating densities ranging from 5000 to 40,000 cells/well depending on the doubling time of individual cell lines. After cell inoculation, the microtiter plates are incubated at 37° C., 5% CO2, 95% air and 100% relative humidity for 24 hours prior to addition of experimental drugs. After 24 hours, two plates of each cell line are fixed in situ with Trichloroacetic acid (“TCA”), to represent a measurement of the cell population for each cell line at the time of drug addition. Experimental drugs are solubilized in dimethyl sulfoxide at 400-fold the desired final maximum test concentration and stored frozen prior to use. At the time of drug addition, an aliquot of frozen concentrate is thawed and diluted to twice the desired final maximum test concentration with complete medium containing 50 ng/mL gentamicin. An aliquot of 100 μL of this drug dilution is added to the appropriate microtiter wells already containing 100 μL of medium, resulting in the required final drug concentrations. Following drug addition, the plates are incubated for an additional 48 h at 37° C., 5% CO2, 95% air, and 100% relative humidity. For adherent cells, the assay is terminated by the addition of cold TCA. Cells are fixed in situ by the gentle addition of 50 μL of cold 50% (w/v) TCA (final concentration, 10% TCA) and incubated for 60 min at 4° C. The supernatant is discarded, and the plates are washed five times with tap water and air dried. Sulforhodamine B (SRB) solution (100 μL) at 0.4% (w/v) in 1% acetic acid is added to each well, and plates are incubated for 10 min at room temperature. After staining, unbound dye is removed by washing five times with 1% acetic acid and the plates are air dried. Bound stain is subsequently solubilized with 10 mM trizma base, and the absorbance is read on an automated plate reader at a wavelength of 515 nm. For suspension cells, the methodology is the same except that the assay is terminated by fixing settled cells at the bottom of the wells by gently adding 50 μL of 80% TCA (final concentration, 16% TCA). FIGS. 37-74 indicate the growth inhibition effects of selected Compounds against a variety of cell lines based on the above described testing configuration. FIGS. 37-74 present the Growth percent for a given compound against the cell lines and both values and a bar chart of the difference between the mean growth percent and the growth percent which is an indication of the selectivity of the compound for that particular cell line.

[3] = tested on: MDA-MB-231 human breast cancer cells; assay: Wound-healing assay (cell migration); assay type: cell-based; conditions: Homo sapiens; for inhibition at 5 µM: MDA-MB-231, 24 h, wound-healing assay; for IC50: MDA-MB-231, wound-healing assay, dose response, read-out: IC50 antimigratory activity
Description: The highly metastatic human breast cancer MDA-MB-231 cells were cultured in RPMI 1640 medium containing 10 mM HEPES, 4 mM L-glutamine, 10% fetal bovine serum, penicillin (100 IU/mL), and streptomycin (50 μg/mL), and grown in a 5% CO2 atmosphere at 37° C. Cells were plated onto sterile 24-well and allowed to recover for a confluent cell monolayer formed in each well (>95% confluence). Wounds were then inflicted to each cell monolayer using a sterile 200 μL pipette tip. Media were removed, cells monolayers were washed twice with PBS, and then fresh media containing test compounds were added to each well. Test compounds were prepared in DMSO at 5 μM concentration and added to the plates, each in triplicate using DMSO as negative control. The incubation was carried out for 24 h under serum-starved conditions, after which media was removed and cells were fixed and stained using a staining composition sold under the trade name Diff Quick (Dade Behring Diagnostics, Aguada, Puerto Rico). The stain comprised a fixative reagent containing 1.8 mg/L triarylmethane dye in methyl alcohol; a first solution of 1 g/L xanthene dye, buffer, and sodium azide (0.01%) as preservative; and a second solution of 1.25 g/L Thiazine dye mixture (0.625 g/L azure A and 0.625 g/L methylene blue) and buffer. The number of cells migrated on the scratched wound were counted under the microscope in three or more randomly selected fields (magnification: 400×). Final results are expressed as mean±SEM per 400× field. The wound-healing assay is a simple method for the study of directional cell migration in vitro.
Compounds were tested for their ability to inhibit the migration of the highly metastatic MDA-MB-231 human breast cancer cells in the wound-healing assay using the procedure described above. Compounds 6, 10, 12, 13, 24, 26, 27, and 29 inhibited the migration of more than 50% of the human breast cancer cells MDA-MB-231 in the wound healing assay at 5 μM dose. […] The antimigratory activity of tocotrienols may be enhanced by a terminal aromatic functionality. The presence of electron withdrawing group, such as nitro in Compound 29, may eliminate the antiproliferative activity yet retain the antimigratory activity of the compound. While the electron donating groups, such as OH and OMe found in Compounds 23 and 26, respectively, retained both antiproliferative and antimigratory activities.
Utilizing similar procedures follow-up testing was conducted on a variety of compounds using a range of compound concentrations. The results of follow-up antimigratory testing are shown in FIG. 35B and Table III below with IC50 values calculated using statistical software.

[4] = tested on: MCF 10A non-tumorigenic mammary epithelial cells; assay: MTT assay of MCF10A cells; assay type: cell-based, human; conditions: for IC50: Homo sapiens; for Selectivity index: IC50 for MCF 10A divided by IC50 for +SA cell line
Description: MCF 10A (ATCC cat # CRL-10317) normal human non-tumorigenic mammary epithelial cells were maintained in serum-free defined medium consisting of Dulbecco's modified Eagle's medium (DMEM)/F12 containing 5% horse serum, 1% penicillin/streptomycin, 0.5 μg/mL hydrocortisone, 100 ng/mL cholera toxin, 10 μg/mL insulin, and 20 ng/mL epidermal growth factor (rhEGF). For subculturing, cells were rinsed twice with sterile Ca2+ and Mg2+-free phosphate buffered saline (PBS) and incubated in 0.25% trypsin containing 0.025% EDTA in PBS for 5 min at 37° C. The released cells were centrifuged, re-suspended in fresh media and counted using a hemocytometer. For testing, MCF 10A cells were plated at a density of 10×10^4 cells/well. A stock solution of the compounds was prepared in DMSO. DMSO was added to all treatment media such that the final DMSO concentration was the same in all treatment groups within a given experiment and was always less than 0.1%. The compounds were fed in serum free media. MCF10A mammary epithelial cell's viable number was determined by MTT colorimetric assay. […] IC50 values were calculated by non-linear regression using statistical software. The selectivity index indicated in the table represents the IC50 value for the MCF 10A cell line divided by the IC50 value for the +SA cell line.

[5] = tested on: MCF7 human breast cancer cell line; assay: MTT assay of MCF7 cells; assay type: cell-based; conditions: Homo sapiens, media containing 1% fetal bovine serum
Description: (§1) MDA-MB-231 and MCF7 cells were plated at a density of 8×10^3 cells/well and 10^4 cells/well in 96-well culture plates, respectively. The compounds were fed in serum free media containing 5% and 1% fetal bovine serum for MDA-MB-231 and MCF7 cells, respectively.

[6] = tested on: MDA-MB-231 human breast cancer cell line; assay: MTT assay of MDA-MB-231 cells; assay type: cell-based; conditions: Homo sapiens, media containing 5% fetal bovine serum
Description: as §1

[7] = MCF-10A, MCF10A cells, Table II, non-linear regression, read-out: MCF10A (IC50)
[8] = MCF 10A non-tumorigenic cells, Table I, read-out: IC50 MCF 10A

SMILES	IC50 [1] [µM]	mean percent growth across all 60 cell lines (mean 60) [2]	antiproliferative activity against +SA mammary tumor cells (in words) [1]	inhibition at 5 µM [3] [%]	IC50 [3] [µM]	IC50 [4, 7] [µM]	IC50 [4, 8] [µM]	Selectivity index [4]	IC50 [5] [µM]	IC50 [6] [µM]
CC(C)=CCC/C(C)=C/CC/C(C)=C/CC[C@]1(C)CCc2c(CNCCc3ccc(O)cc3)c(O)c(C)c(C)c2O1 [Compound 31, (R)-5-((4-hydroxyphenethylamino)methyl)-2,7,8-trimethyl-2-((3E,7E)-4,8,12-trimethyltrideca-3,7,11-trienyl)chroman-6-ol]	0.47	comparable to the activity of Compound 1	–	–	–	–	–	–	–	–
CC(C)=CCC/C(C)=C/CC/C(C)=C/CC[C@]1(C)CCc2c3c(c(C)c(C)c2O1)OCN(CCc1ccc(O)cc1)C3 [Compound 26, 4-(2-((R)-5,6,8-trimethyl-8-((3E,7E)-4,8,12-trimethyltrideca-3,7,11-trienyl)-9,10-dihydrochromeno[5,6-e][1,3]oxazin-2(1H,3H,8H)-yl)ethyl)phenol]	–	–	very high activities	> 50	4.5	8.5	8.5	5.67	10.6	> 5
CC(C)=CCC/C(C)=C/CC/C(C)=C/CC[C@]1(C)CCc2c3c(c(C)c(C)c2O1)OCN(Cc1ccccc1)C3 [Compound 6, (R)-2-benzyl-5,6,8-trimethyl-8-((3E,7E)-4,8,12-trimethyltrideca-3,7,11-trienyl)-1,2,3,8,9,10-hexahydrochromeno[5,6-e][1,3]oxazine]	1.2 to 2.2	–	inactive	> 50	–	–	–	–	> 20	27.3
CC(C)=CCC/C(C)=C/CC/C(C)=C/CC[C@]1(C)CCc2c3c(cc(C)c2O1)OCN(CCCCO)C3 [Compound 36, 4-((R)-6,8-dimethyl-8-((3E,7E)-4,8,12-trimethyltrideca-3,7,11-trienyl)-9,10-dihydrochromeno[5,6-e][1,3]oxazin-2(1H,3H,8H)-yl)butan-1-ol]	–	negative	–	–	2.2	4.2	4.2	2.34	16.3	> 5
CC(C)=CCC/C(C)=C/CC/C(C)=C/CC[C@]1(C)CCc2c3c(cc(C)c2O1)OCN(CCCO)C3 [Compound 13, 3-((R)-6,8-dimethyl-8-((3E,7E)-4,8,12-trimethyltrideca-3,7,11-trienyl)-9,10-dihydrochromeno[5,6-e][1,3]oxazin-2(1H,3H,8H)-yl)propan-1-ol]	–	negative	–	> 50	6	6.5	6.5	3.61	> 20	> 10
